According to ChEMBL document CHEMBL1201862, “PubChem BioAssay data set” (2004):
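How tested: cells in 96-well plates exposed to compound for 48 hours at five concentrations. Abbreviation: GI50, concentration required for 50% inhibition of growth.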 The source made the active and inactive calls. No stated cut-off is given here; in the data, active = GI50 up to about 1.1 µM and inactive = higher.

Key:
Experiment in all cases: DTP human tumour cell line panel, 48 h
786-0 = test system: 786-0
A498 = test system: A498
A549 = test system: A549
ACHN = test system: ACHN
BT-549 = test system: BT-549
CAKI-1 = test system: CAKI-1
CCRF-CEM = test system: CCRF-CEM
COLO 205 = test system: COLO 205
DU-145 = test system: DU-145
EKVX = test system: EKVX
HCC 2998 = test system: HCC 2998
HCT-116 = test system: HCT-116
HCT-15 = test system: HCT-15
HL-60 = test system: HL-60
HOP-62 = test system: HOP-62
HOP-92 = test system: HOP-92
HT-29 = test system: HT-29
Hs-578T = test system: Hs-578T
IGROV-1 = test system: IGROV-1
KM12 = test system: KM12
LOX IMVI = test system: LOX IMVI
M14 = test system: M14
MCF7 = test system: MCF7
MDA-MB-231 = test system: MDA-MB-231
MDA-MB-435 = test system: MDA-MB-435
MDA-N = test system: MDA-N
MOLT-4 = test system: MOLT-4
Malme-3M = test system: Malme-3M
NCI-H23 = test system: NCI-H23
NCI-H460 = test system: NCI-H460
NCI-H522 = test system: NCI-H522
NCI/ADR-RES = test system: NCI/ADR-RES
OVCAR-3 = test system: OVCAR-3
OVCAR-4 = test system: OVCAR-4
OVCAR-5 = test system: OVCAR-5
OVCAR-8 = test system: OVCAR-8
PC-3 = test system: PC-3
RPMI-8226 = test system: RPMI-8226
RXF 393 = test system: RXF 393
SF-268 = test system: SF-268
SF-295 = test system: SF-295
SF-539 = test system: SF-539
SK-MEL-28 = test system: SK-MEL-28
SK-MEL-2 = test system: SK-MEL-2
SK-MEL-5 = test system: SK-MEL-5
SK-OV-3 = test system: SK-OV-3
SN12C = test system: SN12C
SNB-19 = test system: SNB-19
SNB-75 = test system: SNB-75
SR = test system: SR
SW-620 = test system: SW-620
T47D = test system: T47D
TK-10 = test system: TK-10
U-251 = test system: U-251
UACC-257 = test system: UACC-257
UACC-62 = test system: UACC-62
UO-31 = test system: UO-31

CN(C)c1ncnc2c1ncn2CCn1cnc2c(N(C)C)ncnc21
GI50 (786-0): > 100 µM (inactive) | GI50 (A498): > 100 µM (inactive) | GI50 (A549): > 100 µM (inactive) | GI50 (ACHN): > 100 µM (inactive) | GI50 (BT-549): > 100 µM (inactive) | GI50 (CAKI-1): > 100 µM (inactive) | GI50 (CCRF-CEM): > 100 µM (inactive) | GI50 (COLO 205): > 100 µM (inactive) | GI50 (DU-145): > 100 µM (inactive) | GI50 (EKVX): > 100 µM (inactive) | GI50 (HCC 2998): > 100 µM (inactive) | GI50 (HCT-116): > 100 µM (inactive) | GI50 (HCT-15): > 100 µM | GI50 (HL-60): > 100 µM (inactive) | GI50 (HOP-62): > 100 µM (inactive) | GI50 (HOP-92): > 100 µM (inactive) | GI50 (HT-29): > 100 µM (inactive) | GI50 (Hs-578T): > 100 µM (inactive) | GI50 (IGROV-1): > 100 µM (inactive) | GI50 (KM12): > 100 µM (inactive) | GI50 (LOX IMVI): > 100 µM (inactive) | GI50 (M14): > 100 µM (inactive) | GI50 (MCF7): > 100 µM (inactive) | GI50 (MDA-MB-231): > 100 µM (inactive) | GI50 (MDA-MB-435): > 100 µM (inactive) | GI50 (MDA-N): > 100 µM (inactive) | GI50 (MOLT-4): < 0.01 µM (active) | GI50 (Malme-3M): > 100 µM (inactive) | GI50 (NCI-H23): > 100 µM (inactive) | GI50 (NCI-H460): > 100 µM (inactive) | GI50 (NCI-H522): > 100 µM (inactive) | GI50 (NCI/ADR-RES): > 100 µM (inactive) | GI50 (OVCAR-3): > 100 µM (inactive) | GI50 (OVCAR-4): > 100 µM (inactive) | GI50 (OVCAR-5): > 100 µM (inactive) | GI50 (OVCAR-8): > 100 µM (inactive) | GI50 (PC-3): > 100 µM (inactive) | GI50 (RPMI-8226): > 100 µM (inactive) | GI50 (RXF 393): > 100 µM (inactive) | GI50 (SF-268): > 100 µM (inactive) | GI50 (SF-295): > 100 µM (inactive) | GI50 (SF-539): > 100 µM (inactive) | GI50 (SK-MEL-28): > 100 µM (inactive) | GI50 (SK-MEL-2): > 100 µM (inactive) | GI50 (SK-MEL-5): > 100 µM (inactive) | GI50 (SK-OV-3): > 100 µM (inactive) | GI50 (SN12C): > 100 µM (inactive) | GI50 (SNB-19): > 100 µM (inactive) | GI50 (SNB-75): > 100 µM (inactive) | GI50 (SR): 2.28 µM (inactive) | GI50 (SW-620): > 100 µM (inactive) | GI50 (T47D): > 100 µM (inactive) | GI50 (TK-10): > 100 µM (inactive) | GI50 (U-251): > 100 µM (inactive) | GI50 (UACC-257): > 100 µM (inactive) | GI50 (UACC-62): > 100 µM (inactive) | GI50 (UO-31): > 100 µM (inactive)
